These results are taken from ChEMBL document CHEMBL1201862, “PubChem BioAssay data set” (2004).

Test [1] deals with HEK293. Put plainly: cells. It is filed as functional, cell-based. As to conditions: Homo sapiens.
For test [2], the system named is HEK293. Put plainly: cells. It counts as functional, cell-based. As to conditions: Homo sapiens. This is another data set of the same source.
Test [3] deals with HEK293. The experiment in a line: NOD2 signaling inhibitors in MDP-stimulated cells, cell-based, uHTS, luminescence (AID 2001). It counts as functional. As to conditions: Homo sapiens.
Test [4] concerns HEK293. Put plainly: inhibition of NOD1-driven NF-kB reporter – cell-based, luminescence, uHTS, primary screen (AID 1578). The settings on record: Homo sapiens. It counts as functional.
Test [5] concerns HEK293. The experiment in a line: cells. It counts as functional, cell-based. The settings on record: Homo sapiens. The source holds these as a separate data set.
For test [6], the target named is Nucleotide-binding oligomerization domain-containing protein 2 (Homo sapiens, UniProt Q9HC29). Put plainly: inhibition of NOD2-driven NF-kB reporter – cell-based, luminescence, uHTS, HEK293 (AID 1566). It counts as functional.
In test [7] the target is T1, Short transient receptor potential channel 4 (Mus musculus, UniProt Q9QUQ5).
T1 sequence (Q9QUQ5 whole entry): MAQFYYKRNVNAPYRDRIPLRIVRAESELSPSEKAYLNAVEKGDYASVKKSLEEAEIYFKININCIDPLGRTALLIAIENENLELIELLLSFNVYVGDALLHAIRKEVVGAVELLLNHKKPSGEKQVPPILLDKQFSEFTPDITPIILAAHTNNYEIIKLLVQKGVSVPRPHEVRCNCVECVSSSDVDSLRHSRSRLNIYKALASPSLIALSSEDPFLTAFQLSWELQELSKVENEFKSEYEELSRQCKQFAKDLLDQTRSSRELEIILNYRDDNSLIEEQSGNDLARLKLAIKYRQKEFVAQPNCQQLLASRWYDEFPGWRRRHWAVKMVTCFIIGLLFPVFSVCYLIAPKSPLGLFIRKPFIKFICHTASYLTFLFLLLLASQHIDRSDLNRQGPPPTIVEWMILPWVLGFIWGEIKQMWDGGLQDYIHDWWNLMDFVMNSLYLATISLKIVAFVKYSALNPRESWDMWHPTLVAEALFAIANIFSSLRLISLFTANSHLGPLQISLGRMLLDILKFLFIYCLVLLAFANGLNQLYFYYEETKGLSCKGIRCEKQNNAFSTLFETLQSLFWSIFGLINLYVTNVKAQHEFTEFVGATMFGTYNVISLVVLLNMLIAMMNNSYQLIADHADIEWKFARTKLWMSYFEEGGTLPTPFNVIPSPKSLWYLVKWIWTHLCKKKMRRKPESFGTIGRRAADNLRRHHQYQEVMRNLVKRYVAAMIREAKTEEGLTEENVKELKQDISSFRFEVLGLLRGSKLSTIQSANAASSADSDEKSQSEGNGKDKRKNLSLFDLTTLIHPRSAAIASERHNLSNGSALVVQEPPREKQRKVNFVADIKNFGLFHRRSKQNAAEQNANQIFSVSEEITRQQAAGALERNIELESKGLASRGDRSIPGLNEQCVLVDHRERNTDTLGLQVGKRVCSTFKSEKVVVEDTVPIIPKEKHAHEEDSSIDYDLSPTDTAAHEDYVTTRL
The experiment in a line: block of DAMGO-driven TRPC4 calcium entry – cell-based, HEK293 TRPC4/mu-opioid, Fluo-4 calcium, dose response (AID 434942).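 Note: potency of inhibitors blocking the TRPC4 calcium response.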 It is filed as functional.

Test [8] has as its target T2, Carboxy-terminal domain RNA polymerase II polypeptide A small phosphatase 1 (Homo sapiens, UniProt Q9GZU7).
T2 sequence (Q9GZU7 whole entry): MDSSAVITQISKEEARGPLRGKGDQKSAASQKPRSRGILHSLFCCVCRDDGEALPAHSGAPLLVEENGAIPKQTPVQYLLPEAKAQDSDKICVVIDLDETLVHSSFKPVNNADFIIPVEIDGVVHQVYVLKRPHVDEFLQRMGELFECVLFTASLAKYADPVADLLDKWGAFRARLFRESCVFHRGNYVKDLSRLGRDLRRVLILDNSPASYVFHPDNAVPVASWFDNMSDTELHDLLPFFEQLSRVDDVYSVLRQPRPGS
The experiment in a line: CTDSP1 inhibitors, concentration-response, biochemical, absorbance readout, ultra-high-throughput screen actives (AID 540297). It counts as functional.

The target in test [9] is Eukaryotic translation initiation factor 4E (Mus musculus, UniProt P63073). The experiment in a line: blockers of eIF4G binding by eIF4E – biochemical, TR-FRET, dose response (AID 855).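 Note: potency for disrupting eIF4E binding to eIF4GI seen as loss of FRET.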 It counts as functional. Background: In TR-FRET formats the signal depends on donor and acceptor labels being close together.
For another test, the target named is Melanocortin receptor 4 (Homo sapiens, UniProt P32245). It counts as functional, cell-based.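 Note: Cell-based assay with luminescence read-out, confirmatory dose-response testing for agonist activity of biased ligands at MC4R; human U2OS cells with tagged receptor and beta-arrestin; potency of agonists that increase receptor coupling to beta-arrestin.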
For the next test, the system named is Vero. The experiment in a line: cells. It counts as functional. The settings on record: Chlorocebus sabaeus.
A further test addresses Cytochrome P450 2C19 (Homo sapiens, UniProt P33261). The experiment in a line: Cytochrome panel assay with activity outcomes. Panel member name: p450-cyp2c19 Compounds with AC50 equal or less than 10 uM are considered active. It counts as functional. As to conditions: read-out: AC50.
Test [10] addresses T3, Voltage-gated N-type calcium channel alpha-1B subunit/Amyloid beta A4 precursor protein-binding family A member 1 (Homo sapiens, UniProt Q00975+Q02410). It is filed as protein assay.
Test [11] deals with T3, Voltage-gated N-type calcium channel alpha-1B subunit/Amyloid beta A4 precursor protein-binding family A member 1. It counts as protein assay. The source holds these as a separate data set.
Test [12] is described as follows: viability of uninfected HEp-2 cells – cell-based, HTS, cytotoxicity control for RSV inhibitor project, dose response (AID 2410). It is filed as functional. As to conditions: human respiratory syncytial virus.
Test [13] can be described thus: viability of PTEN-deleted HCT116 cells – cell-based, HCT116 PTEN knockout, dose response (AID 1047).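 Note: HCT116 colon tumor cells with PTEN knocked out; cells exposed to compound for 60 hours before readout; potency for loss of cell viability measured by luminescence.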 It is filed as functional.
The target of test [14] is T4, Corticotropin-releasing factor receptor 2/Corticotropin-releasing factor-binding protein (Homo sapiens, UniProt P24387+Q13324).
T4 sequence (Q13324 whole entry): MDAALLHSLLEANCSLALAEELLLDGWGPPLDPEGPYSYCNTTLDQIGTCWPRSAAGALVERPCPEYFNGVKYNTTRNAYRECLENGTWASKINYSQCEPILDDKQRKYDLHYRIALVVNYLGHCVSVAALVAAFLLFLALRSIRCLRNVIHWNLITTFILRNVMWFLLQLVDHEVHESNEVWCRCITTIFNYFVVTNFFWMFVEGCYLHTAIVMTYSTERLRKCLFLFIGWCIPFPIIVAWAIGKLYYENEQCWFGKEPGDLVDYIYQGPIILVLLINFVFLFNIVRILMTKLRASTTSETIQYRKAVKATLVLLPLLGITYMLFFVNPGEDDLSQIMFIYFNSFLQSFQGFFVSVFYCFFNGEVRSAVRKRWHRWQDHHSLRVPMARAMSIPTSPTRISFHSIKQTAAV
T4 sequence (P24387 whole entry): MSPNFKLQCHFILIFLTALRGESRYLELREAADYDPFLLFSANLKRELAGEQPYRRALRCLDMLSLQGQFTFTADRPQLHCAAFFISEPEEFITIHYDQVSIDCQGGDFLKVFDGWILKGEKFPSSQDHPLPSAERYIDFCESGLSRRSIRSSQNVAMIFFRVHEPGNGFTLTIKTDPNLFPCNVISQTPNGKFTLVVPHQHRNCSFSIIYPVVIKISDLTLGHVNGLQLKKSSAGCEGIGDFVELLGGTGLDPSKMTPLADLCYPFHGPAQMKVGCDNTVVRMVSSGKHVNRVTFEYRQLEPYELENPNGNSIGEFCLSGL
The experiment in a line: activators of CRF receptor 2 with binding protein – uHTS hits, confirmation (AID 602473). It counts as functional. The settings on record: read-out: EC50_Mean.

Another test deals with INS1. Put plainly: INS-1E survival protection against cytokine death – cell-based, luminescence, retest, dose response (AID 449756).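 Note: cell death triggered by IL-1 beta plus TNF-alpha plus IFN-gamma mixture; protective hits raise ATP signal compared with cytokine alone wells.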 It is filed as functional. The settings on record: Rattus norvegicus.
Test [15] addresses Voltage-dependent T-type calcium channel subunit alpha-1H (Homo sapiens, UniProt O95180). It is filed as functional.
Test [16] addresses T5, RNA-binding protein pos-1 (Caenorhabditis elegans, UniProt G5EF15).
T5 sequence (G5EF15 whole entry): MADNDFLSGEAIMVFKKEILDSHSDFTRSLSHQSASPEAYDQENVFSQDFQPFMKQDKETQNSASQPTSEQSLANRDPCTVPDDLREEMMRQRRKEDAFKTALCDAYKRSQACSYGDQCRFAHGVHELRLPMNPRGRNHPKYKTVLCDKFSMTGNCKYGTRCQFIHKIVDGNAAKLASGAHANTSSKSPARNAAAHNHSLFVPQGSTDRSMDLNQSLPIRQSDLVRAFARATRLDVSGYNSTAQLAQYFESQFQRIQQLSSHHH
The experiment in a line: disruptors of C. elegans POS-1 RNA interaction – biochemical, fluorescence polarization, dose response (AID 1964). (In general: Polarisation of emitted light reports the rotation of a fluorescent probe.)

In test [17] the target is T6, Zinc finger protein mex-5 (Caenorhabditis elegans, UniProt Q9XUB2).
T6 sequence (Q9XUB2 whole entry): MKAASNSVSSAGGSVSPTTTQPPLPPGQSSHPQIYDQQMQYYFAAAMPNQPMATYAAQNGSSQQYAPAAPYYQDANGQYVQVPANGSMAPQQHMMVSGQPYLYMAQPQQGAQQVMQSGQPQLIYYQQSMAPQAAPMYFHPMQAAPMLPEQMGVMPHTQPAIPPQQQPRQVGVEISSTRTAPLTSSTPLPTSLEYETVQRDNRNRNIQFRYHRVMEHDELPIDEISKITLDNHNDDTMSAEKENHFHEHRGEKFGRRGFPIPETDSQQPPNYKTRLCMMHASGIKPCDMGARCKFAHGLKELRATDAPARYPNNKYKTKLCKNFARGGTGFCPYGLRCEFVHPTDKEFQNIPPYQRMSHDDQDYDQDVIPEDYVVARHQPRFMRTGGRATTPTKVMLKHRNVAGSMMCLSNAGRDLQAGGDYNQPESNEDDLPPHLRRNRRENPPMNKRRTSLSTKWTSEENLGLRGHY
Put plainly: potency of MEX-5 RNA-binding blockers – biochemical, C. elegans, fluorescence polarization, dose response (AID 1960).

The source made the active and inactive calls.

Chain of Eukaryotic translation initiation factor 4E (P63073 whole entry): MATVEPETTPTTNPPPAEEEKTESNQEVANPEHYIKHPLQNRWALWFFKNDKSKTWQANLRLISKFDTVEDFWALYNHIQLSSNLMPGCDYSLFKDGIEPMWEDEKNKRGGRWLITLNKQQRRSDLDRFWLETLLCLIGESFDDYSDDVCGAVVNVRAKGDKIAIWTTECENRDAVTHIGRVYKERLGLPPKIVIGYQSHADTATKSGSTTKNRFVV
T3 sequence (Q00975 whole entry): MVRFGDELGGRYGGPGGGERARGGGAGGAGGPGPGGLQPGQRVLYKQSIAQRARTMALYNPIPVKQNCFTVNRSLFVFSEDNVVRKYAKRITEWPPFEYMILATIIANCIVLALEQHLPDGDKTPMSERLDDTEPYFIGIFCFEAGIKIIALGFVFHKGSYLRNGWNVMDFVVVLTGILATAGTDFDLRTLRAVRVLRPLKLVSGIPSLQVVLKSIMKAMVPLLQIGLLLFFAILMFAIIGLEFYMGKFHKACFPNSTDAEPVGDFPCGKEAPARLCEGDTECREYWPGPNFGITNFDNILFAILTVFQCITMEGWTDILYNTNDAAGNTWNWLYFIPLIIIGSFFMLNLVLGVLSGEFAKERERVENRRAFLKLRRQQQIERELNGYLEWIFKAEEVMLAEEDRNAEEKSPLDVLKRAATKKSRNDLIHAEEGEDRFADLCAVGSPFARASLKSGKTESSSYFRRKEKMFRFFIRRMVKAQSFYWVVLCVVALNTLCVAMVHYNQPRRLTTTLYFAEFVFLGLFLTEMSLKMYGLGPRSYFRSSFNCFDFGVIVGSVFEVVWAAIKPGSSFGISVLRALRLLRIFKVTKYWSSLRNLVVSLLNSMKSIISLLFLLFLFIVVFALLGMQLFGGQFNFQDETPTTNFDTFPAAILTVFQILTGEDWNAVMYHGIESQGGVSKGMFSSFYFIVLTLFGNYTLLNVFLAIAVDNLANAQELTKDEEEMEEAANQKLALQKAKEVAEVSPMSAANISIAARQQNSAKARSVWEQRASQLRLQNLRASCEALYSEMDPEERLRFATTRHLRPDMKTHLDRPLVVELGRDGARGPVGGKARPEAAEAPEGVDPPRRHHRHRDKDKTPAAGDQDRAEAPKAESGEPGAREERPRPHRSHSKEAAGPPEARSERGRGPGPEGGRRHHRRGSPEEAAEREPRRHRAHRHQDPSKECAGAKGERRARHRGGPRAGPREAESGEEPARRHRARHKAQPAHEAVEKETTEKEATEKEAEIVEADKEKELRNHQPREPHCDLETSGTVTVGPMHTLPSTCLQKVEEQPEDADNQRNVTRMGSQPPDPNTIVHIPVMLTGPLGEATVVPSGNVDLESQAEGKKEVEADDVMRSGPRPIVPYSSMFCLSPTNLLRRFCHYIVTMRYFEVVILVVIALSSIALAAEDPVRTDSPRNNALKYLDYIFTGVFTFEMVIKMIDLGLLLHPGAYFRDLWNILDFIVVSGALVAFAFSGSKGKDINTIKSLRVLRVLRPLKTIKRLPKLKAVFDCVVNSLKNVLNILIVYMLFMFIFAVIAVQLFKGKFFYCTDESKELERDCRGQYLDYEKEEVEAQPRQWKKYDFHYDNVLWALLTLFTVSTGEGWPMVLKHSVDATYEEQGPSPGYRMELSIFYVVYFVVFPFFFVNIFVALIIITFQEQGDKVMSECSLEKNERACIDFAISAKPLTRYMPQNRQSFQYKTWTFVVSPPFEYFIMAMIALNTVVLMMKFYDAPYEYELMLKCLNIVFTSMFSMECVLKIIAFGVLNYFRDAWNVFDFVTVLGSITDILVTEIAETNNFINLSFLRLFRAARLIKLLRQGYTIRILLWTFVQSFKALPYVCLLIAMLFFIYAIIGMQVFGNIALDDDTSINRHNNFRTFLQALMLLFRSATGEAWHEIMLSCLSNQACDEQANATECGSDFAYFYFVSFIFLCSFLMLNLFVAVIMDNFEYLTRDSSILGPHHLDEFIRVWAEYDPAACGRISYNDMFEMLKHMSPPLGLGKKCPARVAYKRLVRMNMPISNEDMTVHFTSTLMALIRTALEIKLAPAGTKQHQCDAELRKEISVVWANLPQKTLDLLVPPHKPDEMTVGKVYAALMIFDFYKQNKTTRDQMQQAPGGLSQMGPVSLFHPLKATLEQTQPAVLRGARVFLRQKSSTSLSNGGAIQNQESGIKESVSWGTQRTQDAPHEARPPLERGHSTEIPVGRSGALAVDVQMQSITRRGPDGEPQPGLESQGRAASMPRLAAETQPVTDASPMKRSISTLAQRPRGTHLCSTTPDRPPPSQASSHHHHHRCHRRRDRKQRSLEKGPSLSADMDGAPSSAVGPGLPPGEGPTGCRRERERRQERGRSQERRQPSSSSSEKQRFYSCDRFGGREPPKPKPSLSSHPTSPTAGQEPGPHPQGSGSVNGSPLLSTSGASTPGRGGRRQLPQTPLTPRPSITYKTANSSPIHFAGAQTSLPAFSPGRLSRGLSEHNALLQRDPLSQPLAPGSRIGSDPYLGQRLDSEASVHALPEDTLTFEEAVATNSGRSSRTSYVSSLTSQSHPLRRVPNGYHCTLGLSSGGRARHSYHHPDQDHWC
T3 sequence (Q02410 whole entry): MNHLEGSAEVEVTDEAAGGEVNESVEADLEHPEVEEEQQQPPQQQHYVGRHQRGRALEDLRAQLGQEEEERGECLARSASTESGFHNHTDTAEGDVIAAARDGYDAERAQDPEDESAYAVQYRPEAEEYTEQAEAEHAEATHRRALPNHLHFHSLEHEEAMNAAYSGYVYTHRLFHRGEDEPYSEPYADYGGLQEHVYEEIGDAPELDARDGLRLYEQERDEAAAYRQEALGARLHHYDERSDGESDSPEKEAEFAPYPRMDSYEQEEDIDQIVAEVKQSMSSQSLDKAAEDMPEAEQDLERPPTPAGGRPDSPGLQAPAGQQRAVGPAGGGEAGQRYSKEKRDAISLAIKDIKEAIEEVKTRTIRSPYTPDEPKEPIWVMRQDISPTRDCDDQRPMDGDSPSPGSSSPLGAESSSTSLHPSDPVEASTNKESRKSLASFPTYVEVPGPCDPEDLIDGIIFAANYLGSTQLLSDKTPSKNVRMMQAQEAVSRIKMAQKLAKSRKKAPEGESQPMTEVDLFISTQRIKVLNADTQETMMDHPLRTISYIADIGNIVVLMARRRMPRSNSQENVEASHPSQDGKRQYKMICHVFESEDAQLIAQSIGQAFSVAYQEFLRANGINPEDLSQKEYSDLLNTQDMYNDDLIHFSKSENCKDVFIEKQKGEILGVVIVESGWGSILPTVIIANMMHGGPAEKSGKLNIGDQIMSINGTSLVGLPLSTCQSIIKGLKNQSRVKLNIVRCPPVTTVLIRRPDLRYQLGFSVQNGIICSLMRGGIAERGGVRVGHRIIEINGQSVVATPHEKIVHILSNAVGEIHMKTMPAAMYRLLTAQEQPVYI
Chain of Nucleotide-binding oligomerization domain-containing protein 2 (Q9HC29 whole entry, the tested form may be a part): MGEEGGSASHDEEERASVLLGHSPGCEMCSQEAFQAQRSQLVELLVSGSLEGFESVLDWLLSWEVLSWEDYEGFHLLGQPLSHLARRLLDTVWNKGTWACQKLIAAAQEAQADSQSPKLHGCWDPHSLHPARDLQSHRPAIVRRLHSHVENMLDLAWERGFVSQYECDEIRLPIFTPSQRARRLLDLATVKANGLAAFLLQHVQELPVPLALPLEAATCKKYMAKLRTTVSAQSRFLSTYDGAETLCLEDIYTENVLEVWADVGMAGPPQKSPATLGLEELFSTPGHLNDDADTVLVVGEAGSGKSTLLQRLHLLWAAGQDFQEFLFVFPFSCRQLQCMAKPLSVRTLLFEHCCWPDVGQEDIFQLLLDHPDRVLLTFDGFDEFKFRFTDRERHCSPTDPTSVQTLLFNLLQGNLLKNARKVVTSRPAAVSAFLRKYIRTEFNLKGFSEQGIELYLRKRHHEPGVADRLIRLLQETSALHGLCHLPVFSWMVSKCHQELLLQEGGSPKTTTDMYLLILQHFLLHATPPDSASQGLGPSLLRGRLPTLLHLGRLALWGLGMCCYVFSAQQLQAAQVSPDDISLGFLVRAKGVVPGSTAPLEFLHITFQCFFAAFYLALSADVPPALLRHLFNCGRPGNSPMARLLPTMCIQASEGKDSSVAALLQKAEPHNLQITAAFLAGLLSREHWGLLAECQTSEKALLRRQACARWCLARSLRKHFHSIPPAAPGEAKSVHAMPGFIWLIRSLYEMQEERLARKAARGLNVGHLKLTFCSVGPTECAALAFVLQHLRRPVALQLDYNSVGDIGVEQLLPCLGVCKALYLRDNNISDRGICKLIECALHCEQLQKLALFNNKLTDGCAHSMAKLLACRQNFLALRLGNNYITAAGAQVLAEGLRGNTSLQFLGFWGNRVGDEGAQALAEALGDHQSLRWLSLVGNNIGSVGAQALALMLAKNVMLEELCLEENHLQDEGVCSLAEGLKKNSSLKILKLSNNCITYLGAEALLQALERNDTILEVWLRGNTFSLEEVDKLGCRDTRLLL
Chain of Melanocortin receptor 4 (P32245 whole entry): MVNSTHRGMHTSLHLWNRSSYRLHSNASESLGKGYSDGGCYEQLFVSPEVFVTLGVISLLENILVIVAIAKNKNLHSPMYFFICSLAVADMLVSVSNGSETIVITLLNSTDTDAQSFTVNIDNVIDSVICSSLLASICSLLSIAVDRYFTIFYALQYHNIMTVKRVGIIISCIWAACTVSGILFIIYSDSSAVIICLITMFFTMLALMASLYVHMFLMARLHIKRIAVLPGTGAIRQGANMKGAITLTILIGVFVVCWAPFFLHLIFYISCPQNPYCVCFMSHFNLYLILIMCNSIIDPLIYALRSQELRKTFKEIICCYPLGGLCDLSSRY

For the molecule `COc1ccccc1N1CCN(c2ncnc3sc(C)c(-c4ccccc4)c23)CC1`, the IC50 with HEK293 [1] was 6.68 µM (active); in the test with HEK293 [2], 17.2 µM (active); in the test on HEK293 [3], 6.98 µM (active); in the test with HEK293 [5], > 20 µM (inactive). The EC50 with HEK293 [4] is 5.48 µM (active); in [6], 11.5 µM (active).
Consider `OCC(Cc1ccccc1)NCc1ccccc1C(F)(F)F` (centres undefined), for which the EC50 in test [7] was 8.41 µM (active).
The same measure, in the same setting: next, `O=C(COC(=O)c1cccc([N+](=O)[O-])c1)c1ccc2c(c1)OCO2`: 0.0027 µM (active).
In the case of `O=C(COC(=O)c1cc(-c2ccccc2Cl)nc2ccccc12)Nc1ncc(C(F)(F)F)cc1Cl`, the IC50 in test [8] is 39 µM (active).
As for `O=C(O)c1cc(-c2ccccc2)n(-c2ccccc2C(=O)O)n1`, in test [9], the IC50 was > 64 µM (inactive).
With `Cc1ccc(C(=O)Cn2c(C(=O)/C=C/c3ccccc3)nc3ccccc32)cc1`, the EC50 at Melanocortin receptor 4 was > 89.2 µM (inactive). Moreover, in the test on Vero, the CC50 is 16.4 µM (active).
Regarding `COc1ccc(NC2=NCC(=O)N2Cc2cccs2)cc1`, on Cytochrome P450 2C19, the AC50 is 8.91 µM (inconclusive). Also, the IC50 in [9] was > 64 µM (inactive).
Take `CCC(=O)N1CCc2cc(S(=O)(=O)NCCN3CCCCC3CC)ccc21` (centres undefined): the EC50 in test [7] was 2.66 µM (active).
In the case of `CC(=O)Nc1ccc(NC(=O)c2cc(-c3ccc(C)c(C)c3O)[nH]n2)cc1`, the IC50 in test [10] was 23.2 µM (active); in test [11] it was > 50 µM (inactive).
`CCOC(=O)/C=C/C(=O)Nc1ccc(S(=O)(=O)N(C)c2ccccc2)cc1`: the IC50 is 5.26 µM (active) in the test on HEK293 [1], > 20 µM (inactive) in the test on HEK293 [2], 4.98 µM (active) in the test on HEK293 [3] and 16.3 µM (active) in the test with HEK293 [5]. The values for the EC50 (in the test with HEK293 [4]; in [6]) were 4.41 µM (active) and > 20 µM (inactive), respectively.
Consider `COc1ccccc1OCCOc1ccc(/C=C2\C(=N)N3N=C(S(C)(=O)=O)SC3=NC2=O)cc1`, for which the IC50 in test [8] was 3.6 µM (active). The CC50 in test [12] is 22.5 µM (active).
Regarding `CC(C)NCC(O)COCCOc1ccc(C(C)(C)C)cc1` (centres undefined), in test [7], the EC50 was 1.06 µM (active).
On to `COC(=O)c1ccccc1NC(=O)c1cc(-c2ccco2)on1`, for which the IC50 is 13.7 µM (active) in [10] and > 50 µM (inactive) in test [11].
`Cc1ccc(Cn2nc(C)c(NC(=O)CSc3nc4c(c(C(F)(F)F)n3)CCc3ccccc3-4)c2C)cc1`: the EC50 in test [13] is 21 µM (active). The IC50 in [9] is > 64 µM (inactive).
For `CNC(=O)c1sc(N2N=C3/C(=C/c4ccccc4)CCCC3C2c2ccccc2)nc1C` (centres undefined), the EC50 in [14] is 16.1 µM (active); in [15], 9.13 µM (active). Besides, the AC50 in the test with INS1 is 6.72 µM (active).
Consider `CCN(CC)S(=O)(=O)c1ccc(NC(=O)c2cc(C(=O)OC)cc([N+](=O)[O-])c2)cc1`, for which the IC50 in test [9] was > 64 µM (inactive).
Consider `CC(C(=O)N1CCCCC1)N1CCN(S(=O)(=O)c2ccc(Cl)cc2)CC1` (centres undefined), for which, in test [8], the IC50 was 54.9 µM (active).
For the molecule `NC(c1csc(NC(=O)Nc2cccc(Cl)c2)n1)C1CCCCC1` (centres undefined), the EC50 on Melanocortin receptor 4 was > 89.2 µM (inactive).
`Cc1ccc(/N=C/c2nc(-c3ccc(C)cc3)oc2O)cc1`: the EC50 in test [16] is 32.6 µM (active); in [17], 68.7 µM (active). Further, in test [9], the IC50 was 50 µM (inactive).

In general, IC50 refers to the concentration that inhibits the measured activity by half. As a reminder, the CC50 is the concentration that lowers cell viability or growth by half. One may read the AC50 as the concentration giving half of the maximal activity seen.
